Source: paper PMC7315563, “Bioactive fluorenes. Part III: 2,7-dichloro-9H-fluorene-based thiazolidinone and azetidinone analogues as anticancer and antimicrobial against multidrug resistant strains agents” (BMC Chemistry, 2020)
Converted amounts (≈) assume the structure as drawn.

How the values were obtained:
[1] = system: Staphylococcus aureus (S. aureus), multidrug resistant clinical isolate; test: agar well diffusion assay; format: cell-based; conditions: Staphylococcus aureus; S. aureus; 500 µg/mL of tested compound; 24 h
Source text: All microbial strains were kindly provided from the department of Medical Microbiology and Immunology faculty of Medicine Assiut University, these clinical isolates were obtained from clinical cases of infections admitted to Assiut University hospital as urinary tract infections, corneal ulcers, bacterial and fungal pneumonia, otomycosis, oral thrush and wound infections.
The clinical isolates used were multidrug resistant strains, they were resistant to β lactam (penicillin, amoxacillin, oxacillin), cephalosporins (cefazolin, cefaclor and cefepime) and macrolides (erythromycin and clarithromycin), they included Gram positive bacteria as Staphylococcus aureus (S. aureus), Methicillin-resistant Staphylococcus aureus (MRSA), Streptococcus pneumoniae (S. pneumoniae), and Gram negative bacteria as Escherichia coli (E. coli), Klebsiella pneumoniae (K. pneumoniae), Pseudomonas aeruginosa (P. aeruginosa), and Acinetobacter baumannii (A. baumannii). The fungal strains that were tested are Aspergillus flavus (A. flavus), A. niger (A. niger) and Candida albicans (C. albicans).
The antimicrobial activity of the fluorene derivatives was initially evaluated by agar well diffusion assay. Mueller–Hinton agar (CM0337) was poured into Petri dishes at 50–60 °C and left to solidify for 15 min. Subsequently, overnight microbial suspensions of tested strains was adjusted to turbidity of 0.5 McFarland Standard, which equals to 1–2 × 10^8 CFU/mL for bacteria and 1–5 × 10^6 for fungi. The microbial inoculums were then diluted in 1:100 ratio in case of bacteria and 1:10 ratio in case of fungi in order to get 1–5 × 10^5 CFU/mL. a sterile cotton swab was dipped into the adjusted microbial suspension and the Mueller–Hinton agar plates were inoculated by evenly streaking cotton swab over the agar medium. Then wells with a diameter of 0.5 cm were cut in the medium with a sterile cork borer. Stock solutions of the flourene derivatives were diluted in DMSO 1% to get 500 μg/mL concentrations. The tested flourene derivatives and controls (50 μL) were dispensed into the wells. The plates were incubated for 24 h at 37 °C for bacteria and C. albicans while at 25 °C for A. falvus and A. niger. The diameters of zones of inhibition (ZOI) around the wells were measured in mm. Following control agents were used: positive control agents—vancomycin (50 μg/mL) for Gram positive bacteria, gentamicin (10 μg/mL) (for Gram negative bacteria) and fluconazole 25 μg/mL for fungi and negative control agent is 1% DMSO.

[2] = system: MDA-MB-231 human breast cancer cells; test: cell viability assay (MTT); format: cell-based; conditions: 24 h; for viability at 1 µg/mL: read-out: Validity (%) for sample concentrations (µg/mL) 1; for viability at 10 µg/mL: read-out: Validity (%) for sample concentrations (µg/mL) 10; for viability at 31.25 µg/mL: read-out: Validity (%) for sample concentrations (µg/mL) 31.25; for viability at 62.5 µg/mL: read-out: Validity (%) for sample concentrations (µg/mL) 62.5; for viability at 125 µg/mL: read-out: Validity (%) for sample concentrations (µg/mL) 125; for viability at 250 µg/mL: read-out: Validity (%) for sample concentrations (µg/mL) 250; for viability at 500 µg/mL: read-out: Validity (%) for sample concentrations (µg/mL) 500
Protocol: (§1) WI-38 normal lung fibroblast cells, A549 lung cancer cells, and MDA-MB-231 breast cancer cells were obtained from VACSERA—Cell Culture Unit, Cairo, Egypt. The cell lines were originally obtained from the American Tissue Culture Collection (ATCC). WI-38, A549, and MDA-MB-231 cell lines were cultured in RPMI-1640 medium supplemented with 10% inactivate fetal bovine serum (FBS) and 1% penicillin/streptomycin were bought (Gibco, Invitrogen, CA). WI-38, A549, and MDA-MB-231 cells were seeded into 96-well plates (at a density of 5000 cells/well). On the following day, cells were treated with different concentrations (0, 1, 10, 31.25, 62.5, 125, 250, 500 µg/mL) of 16 fluorene derivatives in fresh medium and incubated for another 24 h. Cell viability was then assessed using the MTT assay (Sigma Aldrich, St. Louis, MO, USA), and the absorbance was read at 570 nm using an ELISA microplate reader (Molecular Devices, Downingtown, PA, USA).

[3] = system: WI-38 human normal fibroblast cells; test: cell viability assay (MTT); format: cell-based; conditions: 24 h; for viability at 31.25 µg/mL: read-out: Validity (%) for sample concentrations (µg/mL) 31.25; for viability at 62.5 µg/mL: 62.50 µg/mL, read-out: Validity (%) for sample concentrations (µg/mL) 62.50; for viability at 125 µg/mL: read-out: Validity (%) for sample concentrations (µg/mL) 125; for viability at 250 µg/mL: read-out: Validity (%) for sample concentrations (µg/mL) 250; for viability at 500 µg/mL: read-out: Validity (%) for sample concentrations (µg/mL) 500
Protocol: as §1

[4] = system: A549 human lung cancer cells; test: cell viability assay (MTT); format: cell-based; conditions: 24 h; for viability at 1 µg/mL: read-out: Validity (%) for sample concentrations (µg/mL) 1; for viability at 10 µg/mL: read-out: Validity (%) for sample concentrations (µg/mL) 10; for viability at 31.25 µg/mL: read-out: Validity (%) for sample concentrations (µg/mL) 31.25; for viability at 62.5 µg/mL: 62.50 µg/mL, read-out: Validity (%) for sample concentrations (µg/mL) 62.50; for viability at 125 µg/mL: read-out: Validity (%) for sample concentrations (µg/mL) 125; for viability at 250 µg/mL: read-out: Validity (%) for sample concentrations (µg/mL) 250; for viability at 500 µg/mL: read-out: Validity (%) for sample concentrations (µg/mL) 500; for viability at 1000 µg/mL: read-out: Validity (%) for sample concentrations (µg/mL) 1000
Protocol: as §1, with “On the following day, cells were treated with different concentrations (0, 1, 10, 31.25, 62.5, 125, 250, 500 µg/mL) of 16 fluorene derivatives in fresh medium and incubated for another 24 h.” left out

SMILES	viability at 1 µg/mL [2]	viability at 10 µg/mL [2]	viability at 31.25 µg/mL [2]	viability at 62.5 µg/mL [2]	viability at 125 µg/mL [2]	viability at 250 µg/mL [2]	viability at 500 µg/mL [2]	IC50 [2]	viability at 31.25 µg/mL [3]	viability at 62.5 µg/mL [3]	viability at 125 µg/mL [3]	viability at 250 µg/mL [3]	viability at 500 µg/mL [3]	IC50 [3]	viability at 1 µg/mL [4]	viability at 10 µg/mL [4]	viability at 31.25 µg/mL [4]	viability at 62.5 µg/mL [4]	viability at 125 µg/mL [4]	IC50 [4]	other results
O=C1CSC(c2ccccc2)N1c1nc(-c2cc(Cl)cc3c2-c2ccc(Cl)cc2C3)cs1 (centres unmarked) [5a, 3-(4-(2,7-Dichloro-9H-fluoren-4-yl)thiazol-2-yl)-2-phenylthiazolidin-4-one]	98.3%	96.7%	93.6%	86.1%	85.9%	82.5%	75.8%	> 500 µg/mL	89.8%	83.3%	80.6%	77.3%	74.3%	> 500 µg/mL	95.6%	91.4%	86.8%	82.3%	79.7%	413 µg/mL (≈ 834 µM)	zone of inhibition at 500 µg/mL [1]: 3 mm; viability at 250 µg/mL [4]: 75.4%; viability at 500 µg/mL [4]: 45.5%; viability at 1000 µg/mL [4]: 12.5%; melting point: 79 to 82 °C
COc1ccc(C2SCC(=O)N2c2nc(-c3cc(Cl)cc4c3-c3ccc(Cl)cc3C4)cs2)cc1 (centres unmarked) [5b, 3-(4-(2,7-Dichloro-9H-fluoren-4-yl)thiazol-2-yl)-2-(4-methoxyphenyl)thiazolidin-4-one]	97.8%	97.4%	90.8%	88.6%	87.3%	83.6%	81.5%	> 500 µg/mL	99.4%	94.4%	91.3%	81.2%	79%	> 500 µg/mL	91.2%	85.4%	84%	67.8%	64.3%	402 µg/mL (≈ 765 µM)	zone of inhibition at 500 µg/mL [1]: 4 mm; viability at 250 µg/mL [4]: 57.1%; viability at 500 µg/mL [4]: 44.2%; viability at 1000 µg/mL [4]: 17.8%; melting point: 74 to 76 °C
CN(C)c1ccc(C2SCC(=O)N2c2nc(-c3cc(Cl)cc4c3-c3ccc(Cl)cc3C4)cs2)cc1 (centres unmarked) [5e, 3-(4-(2,7-Dichloro-9H-fluoren-4-yl)thiazol-2-yl)-2-(4-(dimethylamino)phenyl)thiazolidin-4-one]	97.3%	96.3%	93.6%	92.6%	85.5%	75.9%	73.7%	> 500 µg/mL	92.4%	85.7%	74.4%	69.3%	62.9%	> 500 µg/mL	93.4%	90.2%	85.6%	77.3%	72.2%	847 µg/mL (≈ 1570 µM)	viability at 250 µg/mL [4]: 65.7%; viability at 500 µg/mL [4]: 62.2%; viability at 1000 µg/mL [4]: 48.9%; melting point: 94 to 96 °C
O=C1CSC(c2ccc([N+](=O)[O-])cc2)N1c1nc(-c2cc(Cl)cc3c2-c2ccc(Cl)cc2C3)cs1 (centres unmarked) [5f, 3-(4-(2,7-Dichloro-9H-fluoren-4-yl)thiazol-2-yl)-2-(4-nitrophenyl)thiazolidin-4-one]	98.1%	97.2%	89%	84.7%	81%	79.6%	77.5%	> 500 µg/mL	82.5%	81.9%	77%	74.3%	67.8%	> 500 µg/mL	95%	89.8%	87%	83.8%	79.2%	567 µg/mL (≈ 1050 µM)	viability at 250 µg/mL [4]: 75.4%; viability at 500 µg/mL [4]: 65.5%; viability at 1000 µg/mL [4]: 12.6%; melting point: 90 to 92 °C
O=C1CSC(c2cccs2)N1c1nc(-c2cc(Cl)cc3c2-c2ccc(Cl)cc2C3)cs1 (centres unmarked) [5k, 3-(4-(2,7-Dichloro-9H-fluoren-4-yl)thiazol-2-yl)-2-(thiophen-2-yl)thiazolidin-4-one]	92.3%	85.8%	68.7%	60.8%	56.7%	50.6%	43%	330 µg/mL (≈ 658 µM)	80.8%	71.4%	64.8%	51.4%	41.9%	288 µg/mL (≈ 574 µM)	95.2%	92.3%	85.9%	83.9%	79.6%	613 µg/mL (≈ 1220 µM)	viability at 250 µg/mL [4]: 76.9%; viability at 500 µg/mL [4]: 60.9%; viability at 1000 µg/mL [4]: 22.6%; melting point: 165 to 167 °C
O=C(O)c1ccc(C2C(Cl)C(=O)N2c2nc(-c3cc(Cl)cc4c3-c3ccc(Cl)cc3C4)cs2)cc1 (centres unmarked) [6g, 4-(3-Chloro-1-(4-(2,7-dichloro-9H-fluoren-4-yl)thiazol-2-yl)-4-oxoazetidin-2-yl)benzoic acid]	96.7%	93.9%	91.2%	82.9%	71.1%	65.5%	55.6%	> 500 µg/mL	73.9%	42%	37.4%	35.7%	30.6%	40 µg/mL (≈ 73.8 µM)	94.5%	90.1%	86.9%	73.5%	68.9%	308 µg/mL (≈ 568 µM)	viability at 250 µg/mL [4]: 63.1%; viability at 500 µg/mL [4]: 18.4%; viability at 1000 µg/mL [4]: 14.4%; melting point: 125 to 127 °C
CC(=O)O[C@H]1C(=O)[C@@]2(C)[C@H]([C@H](OC(=O)c3ccccc3)[C@]3(O)C[C@H](OC(=O)[C@H](O)[C@@H](NC(=O)c4ccccc4)c4ccccc4)C(C)=C1C3(C)C)[C@]1(OC(C)=O)CO[C@@H]1C[C@@H]2O [Taxol, reference compound]								40 µg/mL (≈ 46.8 µM)						41 µg/mL (≈ 48 µM)						2.3 µg/mL (≈ 2.69 µM)	
